# Experimental data from US7371413B2, “Antioxidant and anti-inflammatory activity of compounds and preparations from African nutmeg seeds” (Rutgers, The State University, priority 2003, dated 2008).
# Columns and labels:
# [1] = test system: COX-2 mRNA expression in LPS-induced RAW 264.7 mouse macrophage cells; test: Inhibition of LPS-induced COX-2 mRNA expression (RT-PCR); type: cell-based; settings: for inhibition of COX-2 mRNA expression (in words): within the concentration ranges assayed; for inhibition of COX-2 mRNA expression: 12 hrs
# Description: (§1) Total RNA was isolated using Tri-reagent (Sigma, MO, USA) and 5 μg of this RNA was reverse transcribed to make cDNA using random hexamers and Superscript™ reverse transcriptase (Invitrogen, CA, USA) according to the manufacturer's instructions. The linear range of amplification of iNOS and COX-2 cDNA was determined using gene specific primers from Ambion, Inc. (TX, USA) according to the manufacturer's instructions. Briefly, the optimum amount of 18S primer and competitor for iNOS and COX-2 genes were determined. […] Finally, PCR products from each sample (10 μl) were resolved by electrophoresis in a 2% agarose gel (Fisher Biotech, NJ, USA) and stained with ethidium bromide. An image of the gel was captured after the appropriate exposure time and densitometric analysis was performed using image analysis software (Scion, NIH). For relative quantification, 18S ribosomal RNA was also amplified in same reaction as an internal control. Quantitative analysis of the expression of iNOS and COX-2 mRNA was performed by taking the ratio of the integrated density of each band to that of the 18S RNA band in the same sample.
# [2] = DPPH free radical scavenging assay; type: biochemical; settings: DPPH 1.0×10^−4 M in ethanol, half an hour, 517 nm
# Description: Kombo butter, kombo butter acid extract, and purified sargaquinoic acid (KB-1), sargachromenol (KB-2), and sargahydroquinoic acid (KB-3) were tested for antioxidant activity by both the 2,2′-diphenylpicrylydrazyl (DPPH) and the 2,2′-azinobis-(3-ethylbenzothiazoline-6-sulfonic acid) (ABTS) free radical scavenging assays. A solution of DPPH in ethanol was prepared at a final concentration of 1.0×10^−4 M. Each of the potential actives under investigation was added to the DPPH solution at a number of different concentrations. The solutions were mixed, shaken vigorously and kept in the dark for half an hour. The absorbance of the samples was then measured at 517 nm with an HP Model 8453 spectrophotometer using a blank of ethanol without DPPH. All tests were run in triplicate and averaged. Differences among individual measurements were always less than 5% [26].
# [3] = ABTS free radical scavenging assay (TEAC); type: biochemical; settings: Trolox equivalent of a 1.0 mM solution
# Description: For the ABTS assay, a solution of ABTS in water was prepared at a final concentration of 7 mM. The ABTS radical cation (ABTS^.+) was produced by adding solid potassium persulfate to the ABTS solution sufficient to yield a final concentration of 2.45 mM potassium persulfate in the mixture and allowing the mixture to stand in the dark at room temperature for 12-16 hours before use. The ABTS^.+ solution was diluted with methanol to an absorbance of 0.70 at 734 nm. Stock solutions of each of the potential actives under investigation were diluted with ethanol to ensure 20-80% inhibition of the radical cation upon introduction of a 10 μL aliquot of the active solution to 1 ml of diluted ABTS^.+ solution. The absorbance was measured beginning exactly 1 min after initial mixing and thereafter up to 6 min. Trolox was used as the standard, and the activity of each of the potential actives was expressed as a Trolox Equivalent Antioxidant Capacity (TEAC) value. The TEAC value represents the millimolar concentration of a Trolox solution having an equivalent antioxidant capacity to a 1.0 mM solution of the potential active under investigation.
# [4] = test system: COX-2 protein expression in LPS-induced RAW 264.7 cells; test: Inhibition of LPS-induced COX-2 protein expression (Western blotting); type: cell-based, mouse; settings: treatment for 18 hrs, LPS 0.5 μg/mL
# Excerpt: (§2) To confirm whether the inhibition of NO production by kombo butter, kombo butter acid extract, and purified sargaquinoic acid (KB-1), sargachromenol (KB-2), and sargahydroquinoic acid (KB-3) was due to reduced enzymatic activity or protein expression of inducible nitric oxide synthase (iNOS), we investigated the effect of kombo butter and its constituents on iNOS protein expression by Western blotting. In addition to iNOS, we also studied the effect of kombo butter and its constituents on the expression of cyclooxygenase-2 (COX-2), an enzyme critical to the production of inflammatory prostaglandins and known to be activated in LPS-stimulated macrophages.
# (§3) RAW 264.7 mouse macrophage cells were cultured in Dulbecco's Modified Eagle Medium (DMEM) supplemented with 15% fetal bovine serum (FBS) and an antibiotic and antimycotic mixture. Cell suspensions of 50,000 cells/well were cultured in quadruplicate in flat bottom microtiter plates for 12 hrs. […]
# (§4) An equal amount of protein (40 μg) from each sample was resolved by SDS-polyacrylamide gel electrophoresis. […] Specific bands were detected using enhanced chemiluminescence's detection system (Amersham-Pharmacia Biotech, NJ, USA) and the membrane was exposed to X-ray film. […]
# [5] = test system: iNOS mRNA expression in LPS-induced RAW 264.7 mouse macrophage cells; test: Inhibition of LPS-induced iNOS mRNA expression (RT-PCR); type: cell-based; settings: 12 hrs
# Description: as §1
# [6] = test system: TPA-induced mouse ear edema; settings: compounds isolated from Roldana barba-johannis; compared with α-tocopherol; cited from earlier work
# [7] = compared with α-tocopherol and indomethacin; cited from earlier work
# [8] = in vitro, compared with α-tocopherol; cited from earlier work
# [9] = test system: iNOS protein expression in LPS-induced RAW 264.7 cells; test: Inhibition of LPS-induced iNOS protein expression (Western blotting); type: cell-based, mouse; settings: treatment for 18 hrs, LPS 0.5 μg/mL
# Excerpt: as §2, §3, §4
molecule,measurement,setting,value
vitamin E [reference compound],inhibition of COX-2 mRNA expression (in words),[1],neither of these compounds effected any inhibition
"CC(C)=CCC/C(=C/CC/C(C)=C/CCC1(C)C=Cc2cc(O)cc(C)c2O1)C(=O)O (centres unmarked) [Sargachromenol, sargachromenol]",DPPH free radical scavenging IC50,[2],17.3 µg/mL
same,TEAC,[3],0.75 mM
same,inhibition of COX-2 protein expression,[4],markedly inhibited
same,inhibition of iNOS mRNA expression (in words),[5]; 50 μM,exhibited inhibitory activity
same,inhibition of COX-2 mRNA expression,[1]; 50 μM,16%
same,anti-inflammatory activity,[6],exceeded that of α-tocopherol
same,antioxidant activity (DPPH radical scavenging),[7],better than those of either α-tocopherol or indomethacin
CC(=CCCC(C)=CCc1cc(O)cc(C)c1O)CCC=C(C)CCC=C(C)C(=O)O [kombic acid],antioxidant activity with respect to lipid peroxidation,[8],either met or exceeded that of α-tocopherol
"CC(C)=CCC/C(=C\CC/C(C)=C/CC/C(C)=C/CC1=CC(=O)C=C(C)C1=O)C(=O)O [Sargaquinoic acid, sargaquinoic acid]",TEAC,[3],0.15 mM
same,inhibition of iNOS protein expression,[9],markedly inhibited
same,inhibition of iNOS mRNA expression (in words),[5]; 50 μM,exhibited inhibitory activity
"CC(C)=CCC/C(=C/CC/C(C)=C/CC/C(C)=C/Cc1cc(O)cc(C)c1O)C(=O)O [Sargahydroquinoic acid, sargahydroquinoic acid]",inhibition of iNOS mRNA expression,[5]; 25 μM,31%
same,inhibition of iNOS mRNA expression,[5]; 50 μM,74%
same,inhibition of COX-2 mRNA expression,[1]; 25 μM,~12%
same,inhibition of COX-2 mRNA expression,[1]; 50 μM,~19%
"COc1ccc2c(c1)c(CC(=O)O)c(C)n2C(=O)c1ccc(Cl)cc1 [indomethacin, reference compound]",inhibition of COX-2 mRNA expression (in words),[1],neither of these compounds effected any inhibition
